Assay results published in publication PMC11320581 (ACS Infectious Diseases, 2024).

Legend:
B. anthracis gyrase = type: biochemical, Bacillus anthracis
M. tuberculosis gyrase = conditions: cited from earlier work
E. coli gyrase = E. coli gyrase (Escherichia coli, UniProt P0AES4+P0AES6); type: biochemical
Chain of E. coli gyrase (P0AES4 whole entry, one chain of several): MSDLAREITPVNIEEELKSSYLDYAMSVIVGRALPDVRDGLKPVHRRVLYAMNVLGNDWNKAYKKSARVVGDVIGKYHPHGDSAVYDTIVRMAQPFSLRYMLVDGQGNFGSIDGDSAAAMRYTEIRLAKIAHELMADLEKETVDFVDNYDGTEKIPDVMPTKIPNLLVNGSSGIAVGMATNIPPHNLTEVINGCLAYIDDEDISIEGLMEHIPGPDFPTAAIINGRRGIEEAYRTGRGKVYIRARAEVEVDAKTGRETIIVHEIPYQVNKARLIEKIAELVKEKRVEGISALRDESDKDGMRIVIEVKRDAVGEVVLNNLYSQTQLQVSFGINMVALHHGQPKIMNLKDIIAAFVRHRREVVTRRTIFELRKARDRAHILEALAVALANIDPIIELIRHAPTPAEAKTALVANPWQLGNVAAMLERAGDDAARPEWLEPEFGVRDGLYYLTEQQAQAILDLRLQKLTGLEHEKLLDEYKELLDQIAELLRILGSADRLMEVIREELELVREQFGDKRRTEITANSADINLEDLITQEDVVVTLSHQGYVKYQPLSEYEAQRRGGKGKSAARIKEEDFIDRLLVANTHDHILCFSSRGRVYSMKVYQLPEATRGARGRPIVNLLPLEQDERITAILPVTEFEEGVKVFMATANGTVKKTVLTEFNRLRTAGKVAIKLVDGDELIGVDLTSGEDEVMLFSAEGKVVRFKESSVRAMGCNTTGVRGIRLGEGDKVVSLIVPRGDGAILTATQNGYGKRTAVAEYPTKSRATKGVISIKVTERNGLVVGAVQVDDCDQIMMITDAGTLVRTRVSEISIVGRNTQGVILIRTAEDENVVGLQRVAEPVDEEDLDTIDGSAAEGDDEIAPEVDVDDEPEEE

With `CC1CN2c3c(cc4c(OCC5CCC(=O)N5)noc4c3F)CC3(C(=O)NC(=O)NC3=O)C2C(C)O1` (centres unmarked) [H3D-005722] as the molecule, how does the “single-stranded compared with double-stranded DNA breaks with gyrase” value (B. anthracis gyrase) read?
Its value is “higher levels of single-stranded than double-stranded DNA breaks”.

What about the “total DNA breaks with gyrase relative to topoisomerase IV” value (B. anthracis gyrase) of the same molecule?
Its value is “higher levels of total DNA breaks mediated by gyrase over topoisomerase IV”.

What about the “DNA cleavage mediated by M. tuberculosis gyrase compared with zoliflodacin” value (M. tuberculosis gyrase) of the same molecule?
The value was “higher levels”.

And the “single-stranded compared with double-stranded DNA breaks with gyrase” value (E. coli gyrase)?
Its value is “higher levels of single-stranded than double-stranded DNA breaks”.

What about the “total DNA breaks with gyrase relative to topoisomerase IV” value (E. coli gyrase) of the same molecule?
Its value is “higher levels of total DNA breaks mediated by gyrase over topoisomerase IV”.

For `C[C@@H]1CN2c3c(cc4c(N5C(=O)OC[C@@H]5C)noc4c3F)CC3(C(=O)NC(=O)NC3=O)[C@H]2[C@H](C)O1` [zoliflodacin, Zoliflodacin], which “double-stranded DNA breaks with gyrase relative to topoisomerase IV” value (B. anthracis gyrase) is on record?
The value was roughly 2 times.

And the “single-stranded compared with double-stranded DNA breaks with gyrase” value (B. anthracis gyrase)?
Its value is “more gyrase-mediated single-stranded than double-stranded DNA breaks”.

What about the “total DNA breaks with gyrase relative to topoisomerase IV” value (B. anthracis gyrase) of the same molecule?
Its value is 2.5 to 3 times.

And the “double-stranded DNA breaks with gyrase relative to topoisomerase IV” value (E. coli gyrase)?
The value was roughly 2 times.

And the “single-stranded compared with double-stranded DNA breaks with gyrase” value (E. coli gyrase)?
The value was “more gyrase-mediated single-stranded than double-stranded DNA breaks”.

And the “total DNA breaks with gyrase relative to topoisomerase IV” value (E. coli gyrase)?
Its value is 2.5 to 3 times.
